# Values of other authors in patent US20080152704A1, “Dosage Forms of Palonosetron Hydrochloride Having Improved Stability and Bioavailability” (priority 2006, published 2008).
# Legend:
# 5-HT3 receptor = target: T1, 5-HT3 receptor (Homo sapiens, UniProt P46098)
# T1 sequence (P46098 24-478): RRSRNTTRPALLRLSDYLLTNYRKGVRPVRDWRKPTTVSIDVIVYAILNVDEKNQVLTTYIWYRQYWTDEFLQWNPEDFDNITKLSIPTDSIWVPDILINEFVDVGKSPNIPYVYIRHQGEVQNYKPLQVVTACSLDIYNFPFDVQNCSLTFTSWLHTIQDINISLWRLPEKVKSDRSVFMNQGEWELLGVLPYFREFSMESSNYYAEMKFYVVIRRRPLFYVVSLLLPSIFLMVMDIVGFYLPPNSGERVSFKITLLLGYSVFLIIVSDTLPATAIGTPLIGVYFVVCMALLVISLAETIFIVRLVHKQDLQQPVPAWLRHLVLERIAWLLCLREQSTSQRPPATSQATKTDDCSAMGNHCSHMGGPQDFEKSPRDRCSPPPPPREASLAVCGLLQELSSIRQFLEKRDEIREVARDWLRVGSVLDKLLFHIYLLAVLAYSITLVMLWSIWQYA
structure (smiles),measurement,setting,value
"Cl.O=C1c2cccc3c2[C@H](CCC3)CN1[C@@H]1CN2CCC1CC2 [Palonosetron, (3aS)-2-[(S)-1-Azabicyclo [2.2.2]oct-3-yl]-2,3,3a,4,5,6-hexahydro-1-oxo-1Hbenz[de] isoquinoline hydrochloride]",affinity for other receptors such as dopamine receptors,dopamine receptors,low affinity
same,affinity as an antagonist for the 5-HT3 receptor,5-HT3 receptor,high affinity
